This is an account of results in ChEMBL document CHEMBL1201862, “PubChem BioAssay data set” (2004).

Holding throughout (assay): inhibition of tumour cell growth, NCI panel, 48 h
The subject of assay [1] is SK-MEL-5.
The subject of assay [2] is SK-OV-3.
The test system of assay [3] is MCF7.
Assay [4] has as its system T47D.
Assay [5] deals with UACC-62.
Assay [6] deals with OVCAR-8.
For assay [7], the system named is OVCAR-4.
Assay [8] deals with SNB-19.
The subject of assay [9] is HOP-92.
Assay [10] deals with SR.
The test system of assay [11] is OVCAR-3.
Assay [12] relates to KM12.
Assay [13] deals with IGROV-1.
In assay [14] the test system is CCRF-CEM.
In assay [15] the test system is SF-268.
The test system of assay [16] is NCI-H226.
The test system of assay [17] is RPMI-8226.
For assay [18], the system named is MDA-MB-231.
Assay [19] has as its system SNB-75.
Assay [20] concerns LOX IMVI.

Each structure is given as a SMILES string.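 Growth conditions: 96-well plates. Treatment: test compound, 48 hours, 5 concentrations. Analysis: linear interpolation between bracketing concentrations; unreached endpoints set to highest concentration. GI50 is the concentration that inhibits growth by half.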 Active and inactive are the calls of the source. No stated cut-off is given here; in the data, active = GI50 up to about 1.1 µM and inactive = higher.

Regarding `NC(Cc1c[nH]c2ccccc12)P(=O)(O)O` (stereo not drawn), the GI50 in assay [1], in [2], in assay [3], in [4], in assay [5] and in assay [6] was > 100 µM (inactive) throughout. For the same molecule, the GI50 in assay [7] was > 100 µM (inactive); in assay [8] it was > 100 µM (inactive); in assay [9] it was > 10 µM (inactive); in [10] it was > 100 µM (inactive); in assay [11], > 100 µM (inactive); in assay [12] it was > 100 µM (inactive). Also, the GI50 in assay [13], in [14], in [15], in assay [16], in assay [17] and in assay [18] was > 100 µM (inactive) each time. In addition, in assay [19], the GI50 was > 100 µM (inactive).

With `COc1ccc(CNc2ccn(C3OC(CO)C(O)C3O)c(=O)n2)cc1` (stereo not drawn), the GI50 is 62.5 µM (inactive) in assay [1]; > 100 µM (inactive) in assay [2]; 72.9 µM (inactive) in assay [3]; 25.4 µM (inactive) in assay [4]; 74.5 µM (inactive) in assay [5]; > 100 µM (inactive) in assay [6]. Further, the GI50 in assay [7] was 37.2 µM (inactive); in assay [8], > 100 µM (inactive); in [9], 47.1 µM (inactive); in assay [10], > 100 µM (inactive); in assay [11] it was > 100 µM (inactive); in assay [12] it was 45.9 µM (inactive). In addition, the GI50 is > 100 µM (inactive) in assay [13]; 31.3 µM (inactive) in [14]; > 100 µM (inactive) in assay [15]; > 100 µM (inactive) in [20]; > 100 µM (inactive) in assay [16]; 86.9 µM (inactive) in assay [17]. Also, in [18], the GI50 is > 100 µM (inactive).

Regarding `COc1ccc2c(c1)CCN=C2Cc1ccccc1CCCl`, the GI50 was 17.5 µM (inactive) in assay [1]; 39.3 µM (inactive) in assay [2]; 26 µM (inactive) in [3]; 17.7 µM (inactive) in assay [4]; 22.5 µM (inactive) in assay [5]; 23.4 µM (inactive) in assay [6]. In addition, the GI50 is 22 µM (inactive) in assay [7]; 25.8 µM (inactive) in assay [8]; 23.7 µM (inactive) in assay [9]; 51.2 µM (inactive) in [10]; 33.9 µM (inactive) in assay [11]; 23.1 µM (inactive) in assay [12]. Besides, the GI50 is 25.8 µM (inactive) in [13]; 20.7 µM (inactive) in assay [14]; 21.8 µM (inactive) in assay [15]; 26.2 µM (inactive) in [16]; 17.6 µM (inactive) in assay [17]; 15.4 µM (inactive) in [18]. Besides, in assay [19], the GI50 is 31.3 µM (inactive).

Regarding `CC(C)(C)OC(=O)NCC(=O)N1CCN(C(=O)CNC(=O)OC(C)(C)C)CC1`, the GI50 in assay [1], in [2], in assay [3], in assay [4], in [5] and in assay [6] was > 100 µM (inactive) throughout. Further, the GI50 in assay [7], in assay [8], in [9], in assay [10], in assay [11] and in assay [12] was > 100 µM (inactive) in each case. The GI50 is > 100 µM (inactive) in assay [13]; > 100 µM (inactive) in [14]; 18.7 µM (inactive) in assay [15]; > 100 µM (inactive) in assay [20]; > 100 µM (inactive) in assay [16]; > 100 µM (inactive) in assay [17]. The GI50 in assay [18] was > 100 µM (inactive).

In the case of `Cn1c(-c2ccccc2)cc2c3ccsc3c3ccsc3c21`, the GI50 was > 100 µM (inactive) in [1]; > 100 µM (inactive) in [2]; 4.75 µM (inactive) in assay [3]; 6.03 µM (inactive) in assay [4]; > 100 µM (inactive) in assay [5]; > 100 µM (inactive) in assay [6]. Further, the GI50 is > 100 µM (inactive) in assay [7]; > 100 µM (inactive) in assay [8]; > 100 µM (inactive) in assay [9]; 39.1 µM (inactive) in assay [10]; > 100 µM (inactive) in [11]; 16.1 µM (inactive) in [12]. The GI50 in [13], in [15], in assay [20], in [16], in assay [17] and in assay [18] was > 100 µM (inactive) in each case. The GI50 in assay [19] is > 100 µM (inactive).

For the molecule `CC(C)(C)OC(=O)NC(CCCCNC(=O)OCc1ccccc1)C(=O)NCCNc1ccc(NCCNC(=O)C(CCCCNC(=O)OCc2ccccc2)NC(=O)OC(C)(C)C)c2c1C(=O)c1ccccc1C2=O` (stereo not drawn), the GI50 in assay [1] is > 100 µM (inactive); in assay [2], 25.4 µM (inactive); in assay [3], 6.97 µM (inactive); in assay [4] it was 5.11 µM (inactive); in [5], 23 µM (inactive); in assay [6] it was 8.36 µM (inactive). The GI50 in [7] is > 100 µM (inactive); in [8], 10.5 µM (inactive); in assay [9], > 42.3 µM (inactive); in [10], 24.3 µM (inactive); in [11], > 79.4 µM (inactive); in assay [12], 25.6 µM (inactive). For the same molecule, the GI50 in [13] is 29.3 µM (inactive); in assay [15], > 31.8 µM (inactive); in assay [20], > 90.8 µM (inactive); in assay [16] it was > 86.5 µM (inactive); in assay [17] it was 1.02 µM (active); in assay [18] it was 5.85 µM (inactive). For the same molecule, the GI50 in assay [19] was 15.3 µM (inactive).

For `CCOC(=O)CN1C(=O)c2c(c(C)n(-c3ccccc3)c2C)C1=O`, the GI50 in assay [1], in assay [2], in assay [3], in assay [4], in assay [5] and in [6] was > 100 µM (inactive) in each case. In addition, the GI50 in assay [7], in assay [8], in assay [9], in assay [10], in [11] and in assay [12] was > 100 µM (inactive) in each case. The GI50 in [13], in [14], in assay [15], in assay [16], in assay [17] and in assay [18] was > 100 µM (inactive) throughout. Besides, the GI50 in assay [19] was 82.8 µM (inactive).
